For orientation: EC50 means the concentration needed to bring the measured effect to its halfway point.

What all share (format): functional
The target of test [1] is T1, 5-hydroxytryptamine receptor 3A (Mus musculus, UniProt P23979).
T1 sequence (P23979 whole entry): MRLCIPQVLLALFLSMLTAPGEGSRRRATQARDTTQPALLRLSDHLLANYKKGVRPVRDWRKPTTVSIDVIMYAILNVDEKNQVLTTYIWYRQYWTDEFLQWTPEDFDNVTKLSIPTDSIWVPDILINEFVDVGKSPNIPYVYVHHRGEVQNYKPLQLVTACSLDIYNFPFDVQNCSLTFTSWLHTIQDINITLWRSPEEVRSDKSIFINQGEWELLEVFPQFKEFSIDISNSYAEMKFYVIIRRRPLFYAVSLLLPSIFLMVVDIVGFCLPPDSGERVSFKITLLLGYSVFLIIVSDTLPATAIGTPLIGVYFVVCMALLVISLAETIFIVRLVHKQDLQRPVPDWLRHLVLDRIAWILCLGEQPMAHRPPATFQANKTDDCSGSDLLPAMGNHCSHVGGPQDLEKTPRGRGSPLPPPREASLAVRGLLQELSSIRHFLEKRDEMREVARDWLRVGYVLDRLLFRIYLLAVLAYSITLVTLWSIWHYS
The test is described as follows: Agonist activity at wild type mouse 5HT3A receptor expressed in Xenopus oocyte by two-electrode voltage patch clamp method. For orientation: In two-electrode clamp one electrode senses voltage and the other passes current.

Test [2] addresses 5-hydroxytryptamine receptor 3A (Mus musculus, UniProt P23979, Y142F). The test is described as follows: Agonist activity at mouse 5HT3A Y143F receptor mutant expressed in Xenopus oocyte by two-electrode voltage patch method.
In test [3] the target is 5-hydroxytryptamine receptor 3A (Mus musculus, UniProt P23979, I189V). Nature of the test: Agonist activity at mouse 5HT3A I190V receptor mutant expressed in Xenopus oocyte by two-electrode voltage patch method.
Test [4] addresses 5-hydroxytryptamine receptor 3A (Mus musculus, UniProt P23979, Q187A). Nature of the test: Agonist activity at mouse 5HT3A Q188A receptor mutant expressed in Xenopus oocyte by two-electrode voltage patch method.
In test [5] the target is 5-hydroxytryptamine receptor 3A (Mus musculus, UniProt P23979, I186A). The test is described as follows: Agonist activity at mouse 5HT3A I187A receptor mutant expressed in Xenopus oocyte by two-electrode voltage patch method.
The target in test [6] is 5-hydroxytryptamine receptor 3A (Mus musculus, UniProt P23979, T185A). Nature of the test: Agonist activity at mouse 5HT3A T186A receptor mutant expressed in Xenopus oocyte by two-electrode voltage patch method.
Test [7] addresses 5-hydroxytryptamine receptor 3A (Mus musculus, UniProt P23979, H184Y). Nature of the test: Agonist activity at mouse 5HT3A H185Y receptor mutant expressed in Xenopus oocyte by two-electrode voltage patch method.
In test [8] the target is 5-hydroxytryptamine receptor 3A (Mus musculus, UniProt P23979, H184F). The test is described as follows: Agonist activity at mouse 5HT3A H185F receptor mutant expressed in Xenopus oocyte by two-electrode voltage patch method.
The target in test [9] is 5-hydroxytryptamine receptor 3A (Mus musculus, UniProt P23979, L183V). Nature of the test: Agonist activity at mouse 5HT3A L184V receptor mutant expressed in Xenopus oocyte by two-electrode voltage patch method.
In test [10] the target is 5-hydroxytryptamine receptor 3A (Mus musculus, UniProt P23979, W182F). The test is described as follows: Agonist activity at mouse 5HT3A W183F receptor mutant expressed in Xenopus oocyte by two-electrode voltage patch method.
Test [11] addresses 5-hydroxytryptamine receptor 3A (Mus musculus, UniProt P23979, S181A). The test is described as follows: Agonist activity at mouse 5HT3A S182A receptor mutant expressed in Xenopus oocyte by two-electrode voltage patch method.
In test [12] the target is 5-hydroxytryptamine receptor 3A (Mus musculus, UniProt P23979, T180A). The test is described as follows: Agonist activity at mouse 5HT3A T181A receptor mutant expressed in Xenopus oocyte by two-electrode voltage patch method.
The target of test [13] is 5-hydroxytryptamine receptor 3A (Mus musculus, UniProt P23979, Y152A). Nature of the test: Agonist activity at mouse 5HT3A Y153A receptor mutant expressed in Xenopus oocyte by two-electrode voltage patch method.
Test [14] deals with 5-hydroxytryptamine receptor 3A (Mus musculus, UniProt P23979, Y152F). Nature of the test: Agonist activity at mouse 5HT3A Y153F receptor mutant expressed in Xenopus oocyte by two-electrode voltage patch method.
Chain of 5-hydroxytryptamine receptor 3A (Mus musculus, UniProt P23979, Y152F) (P23979 24-489 Y153F limits assumed): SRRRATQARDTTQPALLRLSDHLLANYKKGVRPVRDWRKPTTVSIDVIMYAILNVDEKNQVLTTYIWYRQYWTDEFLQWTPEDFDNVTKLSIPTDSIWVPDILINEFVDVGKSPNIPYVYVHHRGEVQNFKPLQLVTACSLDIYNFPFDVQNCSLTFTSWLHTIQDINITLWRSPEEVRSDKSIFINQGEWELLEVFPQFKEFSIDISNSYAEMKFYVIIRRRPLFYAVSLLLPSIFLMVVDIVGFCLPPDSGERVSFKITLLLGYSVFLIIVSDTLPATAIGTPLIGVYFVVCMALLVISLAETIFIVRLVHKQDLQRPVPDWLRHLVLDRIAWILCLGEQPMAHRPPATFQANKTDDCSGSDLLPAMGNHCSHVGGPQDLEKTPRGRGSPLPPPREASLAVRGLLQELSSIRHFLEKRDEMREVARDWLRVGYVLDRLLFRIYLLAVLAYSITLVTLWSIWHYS

Chain of 5-hydroxytryptamine receptor 3A (Mus musculus, UniProt P23979, S181A) (P23979 24-489 S182A limits assumed): as the sequence (P23979 24-489 Y153F limits assumed) above, with F130Y, S159A counted along it
Chain of 5-hydroxytryptamine receptor 3A (Mus musculus, UniProt P23979, H184Y) (P23979 24-489 H185Y limits assumed): as the sequence (P23979 24-489 Y153F limits assumed) above, with F130Y, H162Y counted along it
Chain of 5-hydroxytryptamine receptor 3A (Mus musculus, UniProt P23979, Q187A) (P23979 24-489 Q188A limits assumed): as the sequence (P23979 24-489 Y153F limits assumed) above, with F130Y, Q165A counted along it
Chain of 5-hydroxytryptamine receptor 3A (Mus musculus, UniProt P23979, W182F) (P23979 24-489 W183F limits assumed): as the sequence (P23979 24-489 Y153F limits assumed) above, with F130Y, W160F counted along it
Chain of 5-hydroxytryptamine receptor 3A (Mus musculus, UniProt P23979, Y142F) (P23979 24-489 Y143F limits assumed): as the sequence (P23979 24-489 Y153F limits assumed) above, with Y120F, F130Y counted along it
Chain of 5-hydroxytryptamine receptor 3A (Mus musculus, UniProt P23979, T185A) (P23979 24-489 T186A limits assumed): as the sequence (P23979 24-489 Y153F limits assumed) above, with F130Y, T163A counted along it
Chain of 5-hydroxytryptamine receptor 3A (Mus musculus, UniProt P23979, I189V) (P23979 24-489 I190V limits assumed): as the sequence (P23979 24-489 Y153F limits assumed) above, with F130Y, I167V counted along it
Chain of 5-hydroxytryptamine receptor 3A (Mus musculus, UniProt P23979, Y152A) (P23979 24-489 Y153A limits assumed): as the sequence (P23979 24-489 Y153F limits assumed) above, with F130A counted along it
Chain of 5-hydroxytryptamine receptor 3A (Mus musculus, UniProt P23979, L183V) (P23979 24-489 L184V limits assumed): as the sequence (P23979 24-489 Y153F limits assumed) above, with F130Y, L161V counted along it
Chain of 5-hydroxytryptamine receptor 3A (Mus musculus, UniProt P23979, H184F) (P23979 24-489 H185F limits assumed): as the sequence (P23979 24-489 Y153F limits assumed) above, with F130Y, H162F counted along it
Chain of 5-hydroxytryptamine receptor 3A (Mus musculus, UniProt P23979, T180A) (P23979 24-489 T181A limits assumed): as the sequence (P23979 24-489 Y153F limits assumed) above, with F130Y, T158A counted along it
Chain of 5-hydroxytryptamine receptor 3A (Mus musculus, UniProt P23979, I186A) (P23979 24-489 I209A limits assumed): as the sequence (P23979 24-489 Y153F limits assumed) above, with F130Y, I186A counted along it

On to `N=C(N)NC(=N)Nc1cccc(Cl)c1`, for which the EC50 in [1] was determined as 0.8 µM; in [2], 5.3 µM; in test [3], 2 µM; in [4], 2.3 µM; in test [5], 52 µM; in test [6] it was 1.7 µM. The EC50 was determined as 5.4 µM in test [7]; 2.5 µM in [8]; 5.1 µM in [9]; 16 µM in test [10]; 27 µM in test [11]; 2.2 µM in test [12]. Moreover, the figures for the EC50 in [13] and in test [14] were 7.6 µM and 2.2 µM, respectively.

These data come from ChEMBL document CHEMBL1153515 (Bioorg Med Chem, 2009).
